Data reported in ChEMBL document CHEMBL1201862, “PubChem BioAssay data set” (2004).
One block for each compound: values may come before it. Activity calls are given as the source filed them.

What was measured:
[1] = growth induction of Burl-1 ts yeast mutant, dose response, counter-screen for SUMOylation pathway inhibitor project, whole organism, S. cerevisiae, luminescence (AID 463199); assay type: functional
[2] = growth suppression of PTEN-null colon cells, dose response, cell-based, HCT116 PTEN knockout (AID 1047); assay type: functional;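 also: HCT116 colon tumor cells with PTEN knocked out; cells exposed to compound for 60 hours before readout; potency for loss of cell viability measured by luminescence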
Genome polyprotein = Genome polyprotein (Hepatitis C virus, UniProt Q2Q167); assay: HCV core protein dimerization inhibitors, dose response, biochemical, TR-FRET (AID 2159); parameters: species or system Hepacivirus hominis;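 also: blocks dimerization of HCV core protein measured by TR-FRET between tagged core106 pairs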
Sequence of Genome polyprotein (Q2Q167 whole entry): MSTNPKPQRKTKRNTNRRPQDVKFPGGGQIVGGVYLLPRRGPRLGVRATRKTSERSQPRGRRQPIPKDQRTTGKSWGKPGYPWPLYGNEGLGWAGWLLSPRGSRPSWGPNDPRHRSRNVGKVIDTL

[3] = growth suppression of beta-catenin-knockout colon cells, dose response, cell-based, HCT116, human colon tumor (AID 1045); assay type: functional;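 also: HCT116 colon tumor cells with beta catenin knocked out; cells exposed to compound for 60 hours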
[4] = molecular target: T1, Sentrin-specific protease 7 (Homo sapiens, UniProt Q9BQF6); assay type: functional;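 also: Luminescence-based dose-response confirmation of ultra-high-throughput screening hits, measuring inhibition of SENP7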
T1 sequence (Q9BQF6 whole entry): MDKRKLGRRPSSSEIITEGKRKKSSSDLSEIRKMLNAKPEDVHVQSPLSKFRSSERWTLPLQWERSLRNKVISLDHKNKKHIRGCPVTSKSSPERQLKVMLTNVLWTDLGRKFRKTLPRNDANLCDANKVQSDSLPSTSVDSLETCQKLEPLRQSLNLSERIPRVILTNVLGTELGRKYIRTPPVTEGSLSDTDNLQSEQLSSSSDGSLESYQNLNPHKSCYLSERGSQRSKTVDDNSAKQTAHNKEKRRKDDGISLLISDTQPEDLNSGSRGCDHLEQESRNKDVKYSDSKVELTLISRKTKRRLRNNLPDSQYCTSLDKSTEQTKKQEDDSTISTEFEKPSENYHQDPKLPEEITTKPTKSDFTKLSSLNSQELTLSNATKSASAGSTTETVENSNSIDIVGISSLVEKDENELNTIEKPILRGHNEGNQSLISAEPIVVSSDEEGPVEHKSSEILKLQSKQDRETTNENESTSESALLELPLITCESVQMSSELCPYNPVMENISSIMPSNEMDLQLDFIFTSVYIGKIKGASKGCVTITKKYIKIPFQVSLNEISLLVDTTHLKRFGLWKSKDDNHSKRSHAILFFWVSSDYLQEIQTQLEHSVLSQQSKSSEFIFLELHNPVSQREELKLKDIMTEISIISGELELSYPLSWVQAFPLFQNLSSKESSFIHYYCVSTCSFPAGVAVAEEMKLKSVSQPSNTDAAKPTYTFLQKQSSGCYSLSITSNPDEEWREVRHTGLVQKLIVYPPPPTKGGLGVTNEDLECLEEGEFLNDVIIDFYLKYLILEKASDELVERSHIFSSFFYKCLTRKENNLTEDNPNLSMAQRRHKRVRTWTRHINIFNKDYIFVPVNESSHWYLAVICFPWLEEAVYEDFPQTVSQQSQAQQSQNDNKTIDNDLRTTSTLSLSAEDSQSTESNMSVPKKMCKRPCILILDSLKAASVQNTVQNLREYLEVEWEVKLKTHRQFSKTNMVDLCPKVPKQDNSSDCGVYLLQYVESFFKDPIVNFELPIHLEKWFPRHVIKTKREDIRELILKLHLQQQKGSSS

[5] = molecular target: Mitochondrial peptide methionine sulfoxide reductase (Bos taurus, UniProt P54149); assay: Absorbance-based biochemical high throughput dose response assay for activators of Methionine sulfoxide reductase A (MsrA).; assay type: functional
Sequence of Mitochondrial peptide methionine sulfoxide reductase (P54149 whole entry): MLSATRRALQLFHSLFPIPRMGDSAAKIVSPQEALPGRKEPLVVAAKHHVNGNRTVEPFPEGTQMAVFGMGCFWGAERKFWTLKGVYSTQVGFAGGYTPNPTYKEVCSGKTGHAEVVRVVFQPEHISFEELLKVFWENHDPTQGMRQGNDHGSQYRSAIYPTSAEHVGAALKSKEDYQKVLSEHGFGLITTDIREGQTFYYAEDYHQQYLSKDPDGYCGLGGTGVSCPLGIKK

[6] = Counterscreen for AddAB inhibitors: absorbance-based bacterial cell-based high throughput dose response assay for inhibitors of bacterial viability. [Related pubchem assays (depositor defined):AID435030, AID449728, AID449731, AID488942, AID488955, AID488956]; assay type: functional
[7] = molecular target: T2, Sentrin-specific protease 8 (Homo sapiens, UniProt Q96LD8); assay type: functional;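 also: luminescence read-out of SENP8 inhibition, dose-response confirmation following an ultra-high-throughput screen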
T2 sequence (Q96LD8 whole entry): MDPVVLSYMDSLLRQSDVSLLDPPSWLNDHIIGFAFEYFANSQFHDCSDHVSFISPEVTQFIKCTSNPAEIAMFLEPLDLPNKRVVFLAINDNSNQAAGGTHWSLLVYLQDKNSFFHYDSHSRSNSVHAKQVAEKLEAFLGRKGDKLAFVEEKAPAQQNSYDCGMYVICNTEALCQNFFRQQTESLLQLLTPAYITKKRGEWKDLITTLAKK

Caspase-3 = molecular target: T3, Caspase-3 (Homo sapiens, UniProt P42574); assay type: functional;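 also: Dose-response selectivity test against caspase-3 for candidate inhibitors of sentrin-specific proteases (SENPs)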
T3 sequence (P42574 whole entry): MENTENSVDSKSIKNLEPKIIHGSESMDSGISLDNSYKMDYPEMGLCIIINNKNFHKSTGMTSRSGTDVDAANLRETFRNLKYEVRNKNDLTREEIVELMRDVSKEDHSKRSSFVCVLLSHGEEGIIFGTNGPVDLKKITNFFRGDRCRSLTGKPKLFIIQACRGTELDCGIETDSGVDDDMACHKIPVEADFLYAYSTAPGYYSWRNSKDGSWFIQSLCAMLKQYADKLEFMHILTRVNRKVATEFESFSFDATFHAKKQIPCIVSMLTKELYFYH

[8] = molecular target: T4, Sentrin-specific protease 6 (Homo sapiens, UniProt Q9GZR1); assay type: functional;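 also: Luminescence-based dose-response confirmatory assay of SENP6 inhibition, following up an ultra-high-throughput screen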
T4 sequence (Q9GZR1 whole entry): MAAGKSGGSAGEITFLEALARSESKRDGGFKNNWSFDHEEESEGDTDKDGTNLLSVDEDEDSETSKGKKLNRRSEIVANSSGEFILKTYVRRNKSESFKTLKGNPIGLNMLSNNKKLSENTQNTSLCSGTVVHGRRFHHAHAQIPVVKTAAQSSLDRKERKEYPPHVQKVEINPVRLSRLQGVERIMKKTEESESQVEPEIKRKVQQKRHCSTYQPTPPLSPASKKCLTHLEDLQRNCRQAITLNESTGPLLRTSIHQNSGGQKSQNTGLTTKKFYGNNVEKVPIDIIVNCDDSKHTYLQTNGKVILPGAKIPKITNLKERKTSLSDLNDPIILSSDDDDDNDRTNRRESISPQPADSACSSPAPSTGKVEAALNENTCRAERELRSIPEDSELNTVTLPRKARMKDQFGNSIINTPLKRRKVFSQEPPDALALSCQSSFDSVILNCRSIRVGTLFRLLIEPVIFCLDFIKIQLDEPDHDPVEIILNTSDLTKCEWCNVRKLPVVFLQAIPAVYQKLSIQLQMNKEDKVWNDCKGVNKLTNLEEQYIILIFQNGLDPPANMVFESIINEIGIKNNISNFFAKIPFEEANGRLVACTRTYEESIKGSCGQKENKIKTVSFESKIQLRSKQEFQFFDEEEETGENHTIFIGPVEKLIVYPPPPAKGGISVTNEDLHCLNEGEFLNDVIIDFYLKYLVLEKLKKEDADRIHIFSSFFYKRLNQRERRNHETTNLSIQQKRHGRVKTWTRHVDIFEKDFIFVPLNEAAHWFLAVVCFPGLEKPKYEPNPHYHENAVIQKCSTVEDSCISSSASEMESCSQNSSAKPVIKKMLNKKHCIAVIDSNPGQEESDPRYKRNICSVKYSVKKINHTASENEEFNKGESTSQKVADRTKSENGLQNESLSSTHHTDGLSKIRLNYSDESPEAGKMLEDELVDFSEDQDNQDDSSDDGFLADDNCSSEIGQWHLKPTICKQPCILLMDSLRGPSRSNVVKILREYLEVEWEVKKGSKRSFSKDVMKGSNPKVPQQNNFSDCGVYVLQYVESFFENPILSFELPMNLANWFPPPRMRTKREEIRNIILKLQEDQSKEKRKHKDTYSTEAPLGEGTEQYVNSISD

Exodeoxyribonuclease V = Exodeoxyribonuclease V (Escherichia coli (strain K12), UniProt P04993+P07648+P08394); assay: E. coli RecBCD inhibitors, dose response, counter-screen for AddAB inhibitor project, absorbance, V66 E. coli, mutant T4 phage (AID 492957); assay type: functional, cell-based, Escherichia coli str. K-12 substr. MG1655
Sequence of Exodeoxyribonuclease V (P04993 whole entry): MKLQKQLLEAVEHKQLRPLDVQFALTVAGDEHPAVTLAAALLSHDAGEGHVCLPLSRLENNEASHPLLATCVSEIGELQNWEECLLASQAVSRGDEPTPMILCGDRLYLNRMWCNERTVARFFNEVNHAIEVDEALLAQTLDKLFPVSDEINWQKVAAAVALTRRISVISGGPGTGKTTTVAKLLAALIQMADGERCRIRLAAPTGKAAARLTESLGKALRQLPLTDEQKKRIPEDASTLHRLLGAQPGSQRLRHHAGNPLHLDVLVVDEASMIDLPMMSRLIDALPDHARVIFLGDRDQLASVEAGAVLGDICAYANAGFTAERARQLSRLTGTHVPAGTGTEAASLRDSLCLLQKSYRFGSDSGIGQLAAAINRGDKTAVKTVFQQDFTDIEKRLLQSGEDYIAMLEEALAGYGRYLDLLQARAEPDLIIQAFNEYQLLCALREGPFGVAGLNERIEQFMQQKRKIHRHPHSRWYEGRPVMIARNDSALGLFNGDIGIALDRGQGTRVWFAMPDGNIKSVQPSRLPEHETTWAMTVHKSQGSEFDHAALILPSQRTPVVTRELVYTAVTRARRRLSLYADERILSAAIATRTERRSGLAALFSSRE
Sequence of Exodeoxyribonuclease V (P07648 whole entry): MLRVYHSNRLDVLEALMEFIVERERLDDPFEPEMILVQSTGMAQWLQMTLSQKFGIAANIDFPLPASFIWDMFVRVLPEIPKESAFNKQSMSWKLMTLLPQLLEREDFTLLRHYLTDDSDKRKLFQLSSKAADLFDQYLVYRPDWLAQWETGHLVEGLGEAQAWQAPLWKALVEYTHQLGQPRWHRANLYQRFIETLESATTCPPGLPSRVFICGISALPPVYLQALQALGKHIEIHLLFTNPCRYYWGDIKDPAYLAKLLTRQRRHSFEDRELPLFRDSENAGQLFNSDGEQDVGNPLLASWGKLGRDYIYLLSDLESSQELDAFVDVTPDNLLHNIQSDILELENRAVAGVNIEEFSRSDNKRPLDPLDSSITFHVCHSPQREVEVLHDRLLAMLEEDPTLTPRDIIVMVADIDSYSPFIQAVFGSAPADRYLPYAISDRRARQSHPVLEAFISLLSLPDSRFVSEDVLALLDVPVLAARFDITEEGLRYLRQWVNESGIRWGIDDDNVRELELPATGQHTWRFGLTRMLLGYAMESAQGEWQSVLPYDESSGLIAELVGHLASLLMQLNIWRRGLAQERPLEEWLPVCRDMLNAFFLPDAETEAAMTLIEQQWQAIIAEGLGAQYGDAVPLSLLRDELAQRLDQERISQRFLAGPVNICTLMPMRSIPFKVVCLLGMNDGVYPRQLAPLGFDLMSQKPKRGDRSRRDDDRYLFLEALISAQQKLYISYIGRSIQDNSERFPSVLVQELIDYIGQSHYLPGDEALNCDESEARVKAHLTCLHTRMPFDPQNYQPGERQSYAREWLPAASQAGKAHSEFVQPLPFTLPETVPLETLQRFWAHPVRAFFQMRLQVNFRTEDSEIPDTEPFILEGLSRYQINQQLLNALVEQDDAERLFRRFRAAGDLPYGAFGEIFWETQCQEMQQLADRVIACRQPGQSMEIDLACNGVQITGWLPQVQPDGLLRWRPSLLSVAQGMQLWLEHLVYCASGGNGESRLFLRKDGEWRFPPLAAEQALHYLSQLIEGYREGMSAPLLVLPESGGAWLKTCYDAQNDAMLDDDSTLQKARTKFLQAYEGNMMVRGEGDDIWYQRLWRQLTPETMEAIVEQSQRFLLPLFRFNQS
Sequence of Exodeoxyribonuclease V (P08394 whole entry): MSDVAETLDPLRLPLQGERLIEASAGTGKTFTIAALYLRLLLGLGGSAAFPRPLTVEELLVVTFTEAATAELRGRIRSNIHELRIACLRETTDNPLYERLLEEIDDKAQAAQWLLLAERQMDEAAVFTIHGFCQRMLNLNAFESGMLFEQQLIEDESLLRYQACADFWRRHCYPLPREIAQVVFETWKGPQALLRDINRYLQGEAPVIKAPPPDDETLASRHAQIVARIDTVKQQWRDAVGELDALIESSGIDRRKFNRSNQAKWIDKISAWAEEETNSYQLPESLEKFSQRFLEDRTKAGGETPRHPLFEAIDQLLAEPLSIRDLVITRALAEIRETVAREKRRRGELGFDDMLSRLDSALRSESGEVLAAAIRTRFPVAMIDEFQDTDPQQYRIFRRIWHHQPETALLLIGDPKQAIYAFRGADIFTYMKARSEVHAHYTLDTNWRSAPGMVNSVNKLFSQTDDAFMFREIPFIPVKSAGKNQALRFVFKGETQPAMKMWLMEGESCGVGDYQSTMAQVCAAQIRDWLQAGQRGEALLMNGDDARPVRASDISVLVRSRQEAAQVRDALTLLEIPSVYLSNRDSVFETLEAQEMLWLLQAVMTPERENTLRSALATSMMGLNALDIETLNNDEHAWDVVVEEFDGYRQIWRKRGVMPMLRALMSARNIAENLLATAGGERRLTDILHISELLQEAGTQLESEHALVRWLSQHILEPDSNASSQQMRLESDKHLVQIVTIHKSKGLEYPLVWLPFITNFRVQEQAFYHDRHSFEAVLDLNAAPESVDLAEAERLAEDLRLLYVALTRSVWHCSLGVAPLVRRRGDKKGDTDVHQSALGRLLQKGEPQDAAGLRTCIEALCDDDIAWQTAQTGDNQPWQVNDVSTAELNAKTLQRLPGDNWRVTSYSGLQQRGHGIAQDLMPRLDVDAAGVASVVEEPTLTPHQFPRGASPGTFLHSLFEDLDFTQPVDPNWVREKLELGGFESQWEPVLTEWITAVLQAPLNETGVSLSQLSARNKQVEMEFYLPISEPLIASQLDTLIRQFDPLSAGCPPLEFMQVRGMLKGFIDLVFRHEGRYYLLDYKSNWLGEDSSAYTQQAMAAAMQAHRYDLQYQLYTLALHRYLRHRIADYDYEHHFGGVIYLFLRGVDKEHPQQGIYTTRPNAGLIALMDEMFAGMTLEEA

[9] = molecular target: T5, Probable nicotinate-nucleotide adenylyltransferase (Staphylococcus aureus (strain N315), UniProt P65502); assay type: functional, Staphylococcus aureus subsp. aureus N315; conditions: read-out: IC50_Mean;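 as to IC50 Mean: confirmatory dose-response retesting of NadD inhibitor hits first found in an ultra-high-throughput screen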
[10] = molecular target: G-protein coupled receptor 55 (Homo sapiens, UniProt Q9Y2T6); assay: GPR55 antagonists, SAR follow-up, counter-screen for GPR35 antagonist project, imaging, image-based (AID 2397); assay type: functional
Sequence of G-protein coupled receptor 55 (Q9Y2T6 whole entry): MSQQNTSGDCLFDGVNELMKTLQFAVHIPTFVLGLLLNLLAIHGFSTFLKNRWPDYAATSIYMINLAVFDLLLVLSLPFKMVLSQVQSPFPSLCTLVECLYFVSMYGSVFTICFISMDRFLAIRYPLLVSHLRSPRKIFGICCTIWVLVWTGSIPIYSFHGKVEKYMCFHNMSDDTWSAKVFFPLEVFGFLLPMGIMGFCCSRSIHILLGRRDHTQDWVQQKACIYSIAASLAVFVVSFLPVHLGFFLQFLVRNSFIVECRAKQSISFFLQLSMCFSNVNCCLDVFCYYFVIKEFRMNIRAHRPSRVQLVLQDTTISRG

[11] = molecular target: T5, Probable nicotinate-nucleotide adenylyltransferase; assay type: functional, Staphylococcus aureus subsp. aureus N315
[12] = HIV-1 Env-mediated cell fusion inhibitors, dose response, CCR5-tropic Env (AID 2279); assay type: functional
[13] = molecular target: T6, Delta-type opioid receptor (Homo sapiens, UniProt P41143); assay: DOR agonists, SAR follow-up, image-based (AID 2370); assay type: functional
T6 sequence (P41143 whole entry): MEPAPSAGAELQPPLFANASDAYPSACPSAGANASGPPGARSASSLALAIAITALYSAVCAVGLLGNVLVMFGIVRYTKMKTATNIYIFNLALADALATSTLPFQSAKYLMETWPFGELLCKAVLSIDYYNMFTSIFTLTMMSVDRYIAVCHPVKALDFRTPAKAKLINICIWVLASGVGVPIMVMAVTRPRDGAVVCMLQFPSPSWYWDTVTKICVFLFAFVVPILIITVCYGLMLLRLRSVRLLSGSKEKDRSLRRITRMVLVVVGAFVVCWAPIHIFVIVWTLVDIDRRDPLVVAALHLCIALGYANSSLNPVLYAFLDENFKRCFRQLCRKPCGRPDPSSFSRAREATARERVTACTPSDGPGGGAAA

Mu-type opioid receptor [14] = molecular target: T7, Mu-type opioid receptor (Homo sapiens, UniProt P35372); assay: MOR agonists by imaging, SAR follow-up, image-based (AID 2352); assay type: functional
T7 sequence (P35372 whole entry): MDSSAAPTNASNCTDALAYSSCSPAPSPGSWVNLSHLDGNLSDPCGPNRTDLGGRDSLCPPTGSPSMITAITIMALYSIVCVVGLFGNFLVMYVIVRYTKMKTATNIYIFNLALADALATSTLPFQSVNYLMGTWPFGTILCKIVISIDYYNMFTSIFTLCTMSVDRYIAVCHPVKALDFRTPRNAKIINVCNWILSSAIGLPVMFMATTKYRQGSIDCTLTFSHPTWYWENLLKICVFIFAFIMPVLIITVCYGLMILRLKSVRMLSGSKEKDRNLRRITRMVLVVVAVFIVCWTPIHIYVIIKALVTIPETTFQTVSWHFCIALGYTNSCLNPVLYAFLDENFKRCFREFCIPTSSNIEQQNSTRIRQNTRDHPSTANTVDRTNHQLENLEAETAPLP

[15] = molecular target: T8, Kappa-type opioid receptor (Homo sapiens, UniProt P41145); assay: kappa opioid receptor blockers, cell-based, luminescence, beta-arrestin, SAR follow-up (AID 2285); assay type: functional
T8 sequence (P41145 whole entry): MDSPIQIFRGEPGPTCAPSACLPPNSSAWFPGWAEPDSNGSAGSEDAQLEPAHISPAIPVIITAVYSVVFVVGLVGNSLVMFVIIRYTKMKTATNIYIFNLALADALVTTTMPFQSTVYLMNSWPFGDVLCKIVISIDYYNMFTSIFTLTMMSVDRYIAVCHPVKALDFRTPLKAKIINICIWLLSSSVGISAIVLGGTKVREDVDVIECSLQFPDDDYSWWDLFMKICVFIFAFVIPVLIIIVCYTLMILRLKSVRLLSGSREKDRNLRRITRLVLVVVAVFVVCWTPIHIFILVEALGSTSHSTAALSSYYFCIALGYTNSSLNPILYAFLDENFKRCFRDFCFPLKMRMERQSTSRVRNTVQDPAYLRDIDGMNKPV

[16] = molecular target: T8, Kappa-type opioid receptor; assay: KOR agonist analogs, imaging readout, SAR follow-up, image-based (AID 2359); assay type: functional
Mu-type opioid receptor [17] = molecular target: T7, Mu-type opioid receptor; assay: MOR antagonists, SAR follow-up, image-based (AID 2420); assay type: functional;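 also: compounds added before stimulation of receptor with agonist DAMGO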
[18] = molecular target: T8, Kappa-type opioid receptor; assay: KOR antagonists by imaging, SAR follow-up, image-based (AID 2348); assay type: functional
[19] = molecular target: T6, Delta-type opioid receptor; assay: DOR antagonists, SAR follow-up, image-based (AID 2357); assay type: functional
cells [20] = assay type: functional, cell-based
[21] = molecular target: Lysine-specific demethylase 4C (Homo sapiens, UniProt Q9H3R0); assay: GASC-1 (JMJD2C) histone demethylase inhibitors, dose response, biochemical, DELFIA europium, cherry-picked samples (AID 488835); assay type: functional
cells [22] = assay type: functional, cell-based; remark: listed apart in the source
HEK293 = assay: inhibitors of LMP1-driven NF-kB reporter, dose response, cell-based, HEK293, luciferase, cherry-pick (AID 588343); assay type: functional; conditions: Homo sapiens
INS1 = assay: beta cell apoptosis inhibitors, cytokine rescue, dose response, luminescence, retest (AID 449756); assay type: functional, cell-based; conditions: Rattus norvegicus;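 also: cell death triggered by IL-1 beta plus TNF-alpha plus IFN-gamma mixture; protective hits raise ATP signal compared with cytokine alone wells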

Compound: O=C(N/N=C/C(Br)=C/c1ccccc1)c1[nH]nc2c1CCC2
AC50 [1]: 120 µM (active)
EC50 [2]: < 0.059 µM (active)
IC50 (Genome polyprotein): > 49.8 µM (not active)
EC50 [3]: < 0.059 µM (active)

Compound: O=C(COC(=O)c1ccc([N+](=O)[O-])s1)c1ccc[nH]1
IC50 [4]: 18.4 µM (active)
EC50 [5]: 15.8 µM (inactive)
IC50 [6]: 104 µM (inactive)
IC50 [7]: 5.37 µM (active)
IC50 (Caspase-3): 10.2 µM (active)
IC50 [8]: 6.52 µM (active)
IC50 (Exodeoxyribonuclease V): > 119 µM (inactive)

Compound: CCC(Sc1nc2ccsc2c(=O)n1Cc1ccc(C(=O)O)cc1)C(=O)Nc1ccc(C)c(Cl)c1 (configuration not stated)
IC50 [9]: 38.6 µM (active)
IC50 [10]: 14.9 µM (inactive)
IC50 [11]: 6.61 µM (active)
IC50 [12]: 47.7 µM (active)

EC50 [13]: > 32 µM (inactive)
EC50 (Mu-type opioid receptor [14]): > 32 µM (inactive)
IC50 [15]: > 10 µM (inactive)
EC50 [16]: > 32 µM (inactive)
IC50 (Mu-type opioid receptor [17]): > 32 µM (inactive)
IC50 [18]: > 32 µM (inactive)
IC50 [19]: > 32 µM (inactive)
Compound: CC(=O)c1ccc(S(=O)(=O)NCc2ccc(C(=O)N(C)CC(=O)Nc3cccc(F)c3)cc2)cc1

Compound: COc1cccc(/C=N/Nc2nc3ccccc3[nH]2)c1O
EC50 (cells [20]): 26.6 µM (active)
AC50 [21]: 8.63 µM (active)
EC50 (cells [22]): > 350 µM (not active)
AC50 (HEK293): 3.34 µM (active)
AC50 (INS1): 2.22 µM (active)
